Assay results from ChEMBL document CHEMBL1201862, “PubChem BioAssay data set” (2004).
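Following 48 hours of exposure in 96-well plates, responses at five concentrations were used to interpolate endpoints linearly. GI50 marks 50% less growth.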 Active and inactive are the calls of the source. Rule as the data show it: active = GI50 up to about 1.1 µM and inactive = higher.

Legend:
Experiment in all cases: inhibition of tumour cell growth, NCI panel, 48 h
A549 = system: A549
ACHN = system: ACHN
COLO 205 = system: COLO 205
HCT-116 = system: HCT-116
HL-60 = system: HL-60
HOP-62 = system: HOP-62
HOP-92 = system: HOP-92
M19-MEL = system: M19-MEL
NCI-H226 = system: NCI-H226
NCI-H460 = system: NCI-H460
NCI-H522 = system: NCI-H522
OVCAR-4 = system: OVCAR-4
OVCAR-8 = system: OVCAR-8
RPMI-8226 = system: RPMI-8226
SF-539 = system: SF-539
SNB-75 = system: SNB-75
SR = system: SR
UO-31 = system: UO-31

Measured: GI50

Cc1ccc(NC(=O)CCc2nc(N)nc(N)c2-c2ccccc2)cc1C
inactive: A549 > 100 µM | ACHN > 100 µM | COLO 205 > 100 µM | HCT-116 > 100 µM | HL-60 > 100 µM | HOP-62 > 100 µM | HOP-92 > 100 µM | M19-MEL > 100 µM | NCI-H226 > 100 µM | NCI-H460 > 100 µM | NCI-H522 > 100 µM | OVCAR-4 > 100 µM | OVCAR-8 > 100 µM | RPMI-8226 > 100 µM | SF-539 > 100 µM | SNB-75 58.7 µM | SR > 100 µM | UO-31 > 100 µM

O=C(Nc1c(O)[nH]c(=S)[nH]c1=O)c1ccco1
inactive: A549 > 100 µM | ACHN > 100 µM | COLO 205 > 100 µM | HCT-116 > 100 µM | HL-60 > 100 µM | HOP-62 > 100 µM | HOP-92 38.9 µM | M19-MEL > 100 µM | NCI-H226 > 100 µM | NCI-H460 > 100 µM | NCI-H522 > 100 µM | OVCAR-4 > 100 µM | OVCAR-8 > 100 µM | RPMI-8226 > 100 µM | SF-539 > 100 µM | SNB-75 > 100 µM | SR > 100 µM | UO-31 > 100 µM

CCOC(=N)/C(=C1\OC(=N)C(c2ccc(Cl)cc2)=C1O)c1ccc(Cl)cc1
inactive: A549 23.4 µM | ACHN 21.3 µM | COLO 205 16.6 µM | HCT-116 16.9 µM | HL-60 17.3 µM | HOP-62 22.5 µM | HOP-92 18.5 µM | M19-MEL 16.9 µM | NCI-H226 20.5 µM | NCI-H460 21.6 µM | NCI-H522 15 µM | OVCAR-4 11.8 µM | OVCAR-8 15.4 µM | RPMI-8226 14.8 µM | SF-539 16.5 µM | SNB-75 18.8 µM | SR 16.7 µM | UO-31 17.5 µM

C=C(Br)C(C)(Cl)CCC(Br)C(C)(C)Br (configuration not stated)
inactive: A549 40.9 µM | ACHN > 100 µM | COLO 205 57 µM | HCT-116 31.9 µM | HL-60 19.9 µM | HOP-62 > 100 µM | HOP-92 32.7 µM | M19-MEL 34 µM | NCI-H226 > 100 µM | NCI-H460 47.5 µM | NCI-H522 43.8 µM | OVCAR-4 > 100 µM | OVCAR-8 > 100 µM | RPMI-8226 25.9 µM | SF-539 > 100 µM | SNB-75 46 µM | SR 22.1 µM | UO-31 84.3 µM
